Test results: patent US9474730B2, “Methods and compositions for use with K-ras mediated disorders” (Board of Regents of the University of Texas System, priority 2012, dated 2016)
Structures can show the parent of a compound that is named as a salt.

How the values were obtained:
[1] = tested on: MDCK and BHK cells expressing oncogenic mutant H-RasG12V; assay: Signaling in cells expressing oncogenic H-RasG12V, Western blotting; format: cell-based, canine (MDCK), hamster (BHK); conditions: to the similar extent as in K-rasG12V cells, 6 μg/mL, 48 h
Experimental: FIG. 7: Illustrates that H-rasG12V signals through endogenous K-ras: BHK cells stably expressing H-rasG12V were treated with vehicle or fendiline HCl (6 μg/mL) for 48 h. (A) ppMEK and ppERK in soluble protein fraction and pAkt levels in membrane protein fraction were measured by quantitative Western blotting. A representative blots are shown. (B) BHK cells stably expressing H-rasG12V were transfected with K-ras siRNA encoding plasmid. 24 h after transfection, cells were treated with vehicle or fendiline HCl (6 μg/mL) for a further 48 h. Whole cell lysates were prepared from serum starved cells and analyzed by quantitative Western blotting. Representative Western blots are shown. Data is shown as mean±SEM from 6 independent experiments. […] (*=p<0.05), and experimentation was performed in accordance with principles described herein;
(§1) Preparation of whole-cell lysates: cells were lysed in Buffer B (50 mM Tris [pH 7.5], 75 mM NaCl, 25 mM NaF, 5 mM MgCl2, 5 mM EGTA, 1 mM dithiothreitol, 100 μM NaVO4, 1% Nonidet P-40 plus protease inhibitors). Cellular fractionation: cells were incubated in Buffer A (10 mm Tris-HCl, pH 7.5, 25 mm NaF, 5 mm MgCl2, 1 mm EGTA, 1 mm dithiothreitol, 100 μm NaVO4 plus protease inhibitors) for 30 minutes on ice and lysed by passing through a 27 G needle 30 times. The post nuclear supernatant was centrifuged at 100,000 g for 30 minutes and the membrane pellet was resuspended in Buffer A containing 1% Triton X-100.
(§2) Quantification of intensities was performed using FluorChemQ software.

[2] = tested on: BHK cells stably expressing K-rasG12V; assay: Signaling downstream of oncogenic K-ras by quantitative Western blotting; format: cell-based, hamster; conditions: 6 μg/mL, 48 h, K-rasG12V BHK cells
Experimental: (§3) FIG. 5: Illustrates that fendiline HCl inhibits Raf kinase activity and signaling downstream of oncogenic K-ras: BHK cells stably expressing K-rasG12V were treated with vehicle or fendiline HCl (6 μg/mL) for 48 h. (A) Raf kinase activity in membrane fractions prepared from the cells was measured in a coupled […] kinase assay. Data is shown as mean±SEM from 3 independent experiments. (B) ppMEK and ppERK in soluble protein fraction and pAkt levels in membrane protein fraction were measured by quantitative Western blotting. Actin and Akt were used as loading controls for soluble and membrane fractions, respectively. A representative blots are shown. Data is shown as mean±SEM from 3-4 independent experiments. Statistical significance was calculated using one way ANOVA and Student's T-test. (*=p<0.05), wherein experimentation was performed in accordance with principles described herein;
as §1, §2

[3] = tested on: BHK cells expressing constitutively active CRaf (FLAG-C-Raf-DD-CAAX); assay: Signaling in cells expressing constitutively active CRaf, Western blotting; format: cell-based, hamster; conditions: 6 μg/mL, 48 h, serum starved BHK cells
Experimental: FIG. 6: Illustrates that fendiline HCl inhibition occurs at the level of Ras: Whole cell lysates from serum starved BHK cells expressing vector control, FLAG-C-Raf-DD-CAAX or Myc-B-Raf V600E treated with vehicle or fendiline HCl (6 μg/mL) for 48 h were analyzed by quantitative Western blotting. Representative Western blots of c-Raf, pMEK, pERK and Actin (loading control) are shown. Data is shown as mean±SEM from 3-4 independent experiments. Statistical significance was calculated using one way ANOVA and Student's T-test. (*=p<0.05), wherein experimentation was performed in accordance with principles described herein;
as §1, §2

[4] = tested on: cells expressing constitutively active N-Ras; assay: Signaling downstream of oncogenic N-ras; format: cell-based; conditions: data not shown
Experimental: as §1, §2

[5] = target: T1, GFP-K-rasG12V in MDCK or BHK cells (Homo sapiens, UniProt P01116, G12V); assay: Confocal fluorescence microscopy of GFP-tagged full length constitutively active Ras (G12V); format: cell-based, canine (MDCK), hamster (BHK); conditions: 48 h
T1 construct: MDCK and BHK cells expressing GFP-tagged full length constitutively active Ras (G12V) proteins; expressed in transfected cells
Experimental: FIG. 2: Illustrates that fendiline HCl mislocalizes GFP-K-rasG12V but not GFP-H-rasG12V: (A) MDCK or BHK [Baby Hamster Kidney] cells expressing GFP-K-rasG12V or GFP-H-rasG12V were grown on cover slips, treated with vehicle or fendiline HCl (4 μg/mL for MDCK and 6 μg/mL for BHK) for 48 h and fixed with paraformaldehyde. Cells were imaged using a confocal microscope. (B) BHK cells expressing GFP-K-rasG12V or GFP-H-rasG12V (green) were treated with vehicle or fendiline HCl (6 μg/mL) for 48 h. Following treatment, cells were fixed and immuno-labeled with antibodies against PDI (ER marker-red) or p58 (golgi marker-red). Colocalization between GFP and the respective marker protein is shown in yellow. Shown are representative images from 3 independent experiments wherein experimentation was performed in accordance with principles described herein;
Cells were further analyzed using fluorescence microscopy, where cells were grown on coverslips, treated with 1% vehicle (DMSO) or varying concentrations of selected compounds for 48 h, and fixed with 4% paraformaldehyde. The coverslips were mounted in Mowiol® and visualized by confocal microscopy (Nikon A1) using a 60× objective. The cells were immuno-staining, where cells were fixed, permeabilized in 0.1% Triton in PBS for 30 min, and blocked with 0.2% bovine serum albumin and 0.2% fish skin gelatin in PBS for 30 min. […]

[6] = target: T2, GFP-H-rasG12V in MDCK or BHK cells (Homo sapiens, UniProt P01112, G12V); assay: Cellular fractionation (P100/S100) with quantitative Western blotting, GFP-H-rasG12V; format: cell-based, canine (MDCK), hamster (BHK); conditions: 4 μg/mL for MDCK and 6 μg/mL for BHK, 48 hours, vs vehicle
T2 construct: MDCK and BHK cells expressing GFP-tagged full length constitutively active Ras (G12V) proteins; expressed in transfected cells
Experimental: . Following treatment, membrane (P100) and soluble (S100) protein fractions were prepared and analyzed by quantitative Western blotting. Shown are representative Western blots (showing GFP-Ras) of membrane and soluble protein fractions from 3 independent experiments.
as §1, §2

[7] = tested on: Raf kinase activity in BHK cells stably expressing K-rasG12V; assay: Raf kinase assay on membrane fractions of treated cells (coupled MEK/ERK assay); format: cell-based, hamster; conditions: 6 μg/mL, 48 h; phosphorylation of recombinant ERK substrate
Experimental: as §3
Membrane (P100) fractions were prepared from BHK or MDCK cells were dissolved in Buffer A containing 1% TritonX100. Solubilized P100 fractions were incubated with combinations of recombinant MEK and ERK in the presence of Mg^2+-ATP (40 mM and 0.5 mM, respectively) After 30 min at 30° C. with vigorous shaking, the pMEK and ppERK levels were determined by quantitative Western blotting.

## CC(NCCC(c1ccccc1)c1ccccc1)c1ccccc1 (stereo not drawn) [fendiline HCl]
[1]
  pAkt levels: decreased
  pERK levels: decreased
  pMEK levels: decreased
[2]; membrane fraction
  pAkt levels: decreases the pAkt levels, although not statistically significant
[2]; vs vehicle
  cellular levels of pERK: significantly reduces
  cellular levels of pMEK: significantly reduces
[3]
  signaling downstream of constitutively active CRaf: had no effect on signaling downstream of constitutively active CRaf
[4]
  signaling downstream of oncogenic N-ras: had no effect on signaling downstream of oncogenic N-ras
[5]; BHK cells, 6 μg/mL, immunofluorescence
  localization of GFP-K-rasG12V relative to ER (PDI) and Golgi (p58) markers: partially mislocalizes to the ER and golgi
[5]; GFP-tagged full length Ras (G12V), 4 μg/mL for MDCK and 6 μg/mL for BHK
  inhibition of plasma membrane localization, K isoform compared to H and N: more potent inhibitor of plasma membrane localization of the K isoform as compared to H (FIG. 2A) and N
[6]
  localization of GFP-H-rasG12V (fractionation): does not alter the localization of GFP-H-rasG12V
[7]
  reduction of the amount of active Raf compared to vehicle-treated control: approximately 60%
